In publication PMC10451632, “Site Mutation Improves the Expression and Antimicrobial Properties of Fungal Defense” (Antibiotics, 2023):
≈ marks a conversion by molar mass, not a printed value. Bridge positions count the residues as written; N and C are the ends. Peptide text beside a SMILES is read from it.

Columns and labels:
Type in all cases: cell-based
S. agalactiae CAU-FRI-4 = assay: MIC, microtiter broth dilution; conditions: MHB, 10^5 CFUs/mL, 16–18 h at 37 °C
Procedure: (§1) The MIC value of PN7 against bacteria was determined by the microtiter broth dilution method. Briefly, bacteria grown to the exponential phase were diluted into MHB; subsequently, 90 μL of bacterial suspension (10^5 CFUs/mL) was mixed with 10 μL of different concentrations of PN7 in a sterilized 96-well microtiter plate (Nunc). MIC values were recorded after incubation for 16–18 h at 37 °C based on the lowest concentrations of peptides in which no visible bacterial growth was observed.

[1] = test system: Salmonella enterica ATCC 13076; assay: MIC, microtiter broth dilution; conditions: MHB, 10^5 CFUs/mL, 16–18 h at 37 °C
Procedure: as §1

S. enteritidis CVCC 3377 = assay: MIC, microtiter broth dilution; conditions: MHB, 10^5 CFUs/mL, 16–18 h at 37 °C
Procedure: as §1

S. hyicus NCTC 10350 = assay: MIC, microtiter broth dilution; conditions: MHB, 10^5 CFUs/mL, 16–18 h at 37 °C
Procedure: as §1

[2] = test system: Streptococcus. suis CVCC 606; assay: MIC, microtiter broth dilution; conditions: MHB, 10^5 CFUs/mL, 16–18 h at 37 °C
Procedure: as §1

S. agalactiae ATCC 13813 = assay: MIC, microtiter broth dilution; conditions: MHB, 10^5 CFUs/mL, 16–18 h at 37 °C
Procedure: as §1

[3] = test system: Escherichia coli CVCC 195; assay: MIC, microtiter broth dilution; conditions: MHB, 10^5 CFUs/mL, 16–18 h at 37 °C
Procedure: as §1

S. pullorum CVCC 1789 = assay: MIC, microtiter broth dilution; conditions: MHB, 10^5 CFUs/mL, 16–18 h at 37 °C
Procedure: as §1

S. hyicus 437-2 = assay: MIC, microtiter broth dilution; conditions: MHB, 10^5 CFUs/mL, 16–18 h at 37 °C
Procedure: as §1

[4] = test system: S. epidermidis ATCC 35984; assay: MIC, microtiter broth dilution; conditions: MHB, 10^5 CFUs/mL, 16–18 h at 37 °C
Procedure: as §1

[5] = test system: Pseudomonas aeruginosa CICC 20625; assay: MIC, microtiter broth dilution; conditions: MHB, 10^5 CFUs/mL, 16–18 h at 37 °C
Procedure: as §1

[6] = test system: Staphylococcus aureus ATCC 43300; assay: microbe, parasite or virus in culture
Procedure: The experimental operation of the expression of the Plectasin variant in P. pastoris in well plates, shaking flasks, and 5 L level fermentation was performed as referenced in previous studies. Candidates were identified through three different levels of screening. Firstly, a large number of transformants were screened through well plates to induce expression and determined by the inhibition zone assay (against S. aureus ATCC 43300). Secondly, the transformants with obvious inhibition zones were sequenced to obtain protein sequence information, then induced expression at the shake level. The supernatant was collected and purified to obtain the target protein; the anti-Staphylococcus aureus activity of the protein was detected by a MIC assay. Finally, the codons of candidate sequences were optimized, the expression vector was reconstructed, the optimal transformers were obtained, and the high-density cultivation was performed in a 5 L fermenter. The final agent was determined by high protein yield and good activity (Figure 2).
as §1

Compound: CC[C@H](C)[C@@H]1NC(=O)[C@H](CO)NC(=O)[C@H](CCCCN)NC(=O)[C@@H]2CSSC[C@@H](C(=O)N[C@@H](Cc3ccc(O)cc3)C(=O)O)NC(=O)[C@H](CCCCN)NC(=O)[C@@H]3CSSC[C@H](NC(=O)[C@H](CCCNC(=N)N)NC(=O)CNC(=O)[C@H](CC(=O)O)NC(=O)[C@H](CC(=O)O)NC(=O)[C@H](CCC(=O)O)NC(=O)[C@H](Cc4ccc(O)cc4)NC(=O)[C@H](Cc4c[nH]c5ccccc45)NC(=O)[C@@H]4CCCN4C(=O)CNC(=O)[C@H](CC(N)=O)NC(=O)[C@@H](NC(=O)CNC(=O)[C@H](Cc4ccccc4)NC(=O)CN)CSSC[C@H](NC(=O)[C@H](Cc4ccc(O)cc4)NC(=O)CNC(=O)CNC(=O)[C@H](CCCCN)NC(=O)[C@H](Cc4ccc(O)cc4)NC(=O)CNC(=O)[C@H](CCCCN)NC1=O)C(=O)N[C@@H](C)C(=O)N[C@@H](CCCCN)C(=O)NCC(=O)NCC(=O)N[C@@H](Cc1ccccc1)C(=O)N[C@@H](C(C)C)C(=O)N3)C(=O)N[C@@H](Cc1c[nH]cn1)C(=O)N[C@@H](CC(N)=O)C(=O)N[C@@H](Cc1c[nH]cn1)C(=O)N2 [PN7] (H-GFGCNGPWYEDDGRCHNHCKSIKGYKGGYCAKGGFVCKCY-OH; disulfide 4-30, 15-37, 19-39 (inferred); N-terminus and C-terminus assumed)
- MIC (S. agalactiae CAU-FRI-4): 1 µg/mL (≈ 0.227 µM)
- MIC [1]: >128 µg/mL
- MIC (S. enteritidis CVCC 3377): >128 µg/mL
- MIC (S. hyicus NCTC 10350): 4 µg/mL (≈ 0.908 µM)
- MIC [2]: 1 µg/mL (≈ 0.227 µM)
- MIC (S. agalactiae ATCC 13813): 2 µg/mL (≈ 0.454 µM)
- MIC [3]: >128 µg/mL
- MIC (S. pullorum CVCC 1789): >128 µg/mL
- MIC (S. hyicus 437-2): 8 µg/mL (≈ 1.82 µM)
- MIC [4]: 16 µg/mL (≈ 3.63 µM)
- MIC [5]: >128 µg/mL
- MIC ([6]; S. aureus 43300, purified protein induced by shaking flasks): 4 µg/mL (≈ 0.908 µM)
- MIC ([6]; microtiter broth dilution, MHB, 10^5 CFUs/mL, 16–18 h at 37 °C): 8 µg/mL (≈ 1.82 µM)
